Assays:
[1] = test system: Human multiple myeloma, KMS34; assay: Relative cell viability, KMS34; assay type: cell-based; conditions: KMS34 cells, 1 μM, relative to untreated cells
Procedure: After that, 10 μL of CCK-8 was added to each well, and the plate was incubated again at 37° C. in a 5% CO2 incubator for 2 hours.
In other words, when the survival rate of untreated cells (DMSO) is set at 100%, the relative cell survival rate in each group treated with the drug at different concentrations is indicated.

[2] = test system: NHDF (Normal Human Dermal Fibroblast) cells; assay: Doxorubicin/IGF-1 induced aging of NHDF cells (SA-β-gal, Ki-67 FACS); assay type: cell-based; conditions: 0.01, 1 μM; Doxorubicin 100 ng/ml + IGF-1 100 ng/ml, 7 days; FIG. 39
Procedure: To confirm the anti-aging and rejuvenating effects of the compound GO15F of the present invention, a NHDF (Normal Human Dermal Fibroblast, Promocell) cell model was established by inducing aging with doxorubicin (Doxorubicin), and β-galactosidase activity and Ki-67 expression were analyzed in the cells. First, NHDF cells were seeded at 1×10^4 cells per well in a 12-well plate and stabilized for 24 hours. […] After pre-incubation, the medium was removed, and the cells were cultured for 7 days in medium containing Doxorubicin (100 ng/ml) and IGF-1 (100 ng/ml) with GO15F. During this process, the medium was replaced with fresh medium every 2 days. The cultured cells were washed with PBS, fixed with 1× fixation buffer for 15 minutes, washed again with PBS, and then 300 μL of 1× working SA-β-gal buffer was added to each well. The cells were incubated at 37° C. for 24 hours. After the reaction was terminated, the cells were washed with PBS, and the […] of β-gal-positive cells stained blue was observed and photographed using a light microscope. Additionally, to investigate the effect of the compound (GO15F) of the present invention on proliferation activity in aging-induced NHDF (Normal Human Dermal Fibroblast) cells, Ki-67 expression was measured via FACS analysis. First, NHDF cells were seeded at 1×10^4 cells per well in a 12-well plate and stabilized for 24 hours. […]

Compound	Relative cell viability (%) [1] [%]	Number of β-gal-positive cells (SA-β-gal) [2]
CC1(C)CN(CCCCCCCCCCCCC(=O)Nc2nc(N)c3[nH]cnc3n2)CCO1 [Compound 11, 12-[4-(2,2-dimethylmorpholin-4-yl)]dodecyl-N-(6-aminopurine-2-yl) carboxamide]	26.19	
Nc1ncccc1C(=O)NCCCCCCCCCCCCF [Compound 57, 2-Amino-N-(12-fluoro-dodecyl)-nicotinamide]		the number of β-gal-positive cells decreased

From patent US20260183274A1, “PDK1 REGULATORY COMPOUND AND COMPOSITION CONTAINING THE SAME” (PROVIBIO CO., LTD., priority 2024, published 2026)
